Test results taken from PubChem BioAssay (NCI).
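Compound exposure: 48 hours, 5 concentrations, 96-well plates. TGI: total growth inhibition.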

What was measured:
Assay in all cases: NCI-60 cell line screen, 48 h
[1] = test system: M14 melanoma
[2] = test system: UACC-62 melanoma
[3] = test system: SF-268 CNS
[4] = test system: SNB-75 CNS
[5] = test system: NCI-H23 lung
[6] = test system: A549 NSCLC
[7] = test system: HT29 colon
[8] = test system: DLD-1 colon
[9] = test system: HOP-18 NSCLC
[10] = test system: NCI-H226 lung
[11] = test system: HCT-15 colon
[12] = test system: COLO 205 colon
[13] = test system: SW-620 colon
[14] = test system: OVCAR-4 ovarian
[15] = test system: K-562 leukemia
[16] = test system: SNB-19 CNS
[17] = test system: HCC-2998 colon
[18] = test system: HL-60(TB) leukemia
[19] = test system: EKVX NSCLC
[20] = test system: UO-31 renal
[21] = test system: DMS 114 small cell lung
[22] = test system: KM12 colon
[23] = test system: RXF-631 renal
[24] = test system: A498 renal
[25] = test system: SK-MEL-5 melanoma
[26] = test system: SK-OV-3 ovarian
[27] = test system: CAKI-1 renal
[28] = test system: KM20L2 colon
[29] = test system: NCI-H522 lung
[30] = test system: ACHN renal
[31] = test system: SK-MEL-2 melanoma
[32] = test system: UACC-257 melanoma
[33] = test system: IGROV1 ovarian
[34] = test system: 786-0 renal
[35] = test system: OVCAR-3 ovarian
[36] = test system: DMS 273 small cell lung
[37] = test system: HOP-92 NSCLC
[38] = test system: OVCAR-5 ovarian
[39] = test system: CCRF-CEM leukemia
[40] = test system: SF-295 CNS
[41] = test system: NCI-H460 lung
[42] = test system: TK-10 renal
[43] = test system: SF-539 CNS
[44] = test system: MOLT-4 leukemia
[45] = test system: RXF 393 renal
[46] = test system: SK-MEL-28 melanoma
[47] = test system: M19-MEL melanoma
[48] = test system: LOX IMVI melanoma
[49] = test system: LXFL 529 NSCLC
[50] = test system: MALME-3M melanoma
[51] = test system: U251 CNS
[52] = test system: XF 498 CNS
[53] = test system: HOP-62 NSCLC
[54] = test system: HCT-116 colon
[55] = test system: SN12C renal
[56] = test system: OVCAR-8 ovarian
[57] = test system: SNB-78 CNS

Structure (SMILES): COc1ccc2c(c1)C(O)(C(F)(F)F)c1cc(C(=O)C(F)(F)F)c3ccccc3c1N2 (stereo not drawn)
- TGI [1]: 18.1 µM
- TGI [2]: 15.4 µM
- TGI [3]: 24.1 µM
- TGI [4]: 36 µM
- TGI [5]: 25.6 µM
- TGI [6]: 28.3 µM
- TGI [7]: 20.3 µM
- TGI [8]: 22.4 µM
- TGI [9]: 33.3 µM
- TGI [10]: 28 µM
- TGI [11]: 21 µM
- TGI [12]: 19.5 µM
- TGI [13]: 26.8 µM
- TGI [14]: 22.4 µM
- TGI [15]: 15.7 µM
- TGI [16]: 29.5 µM
- TGI [17]: 24.3 µM
- TGI [18]: 43.2 µM
- TGI [19]: 34.1 µM
- TGI [20]: 21.5 µM
- TGI [21]: 22.1 µM
- TGI [22]: 15.6 µM
- TGI [23]: 34.6 µM
- TGI [24]: 27.4 µM
- TGI [25]: 26.6 µM
- TGI [26]: 31.6 µM
- TGI [27]: 26.8 µM
- TGI [28]: 13.7 µM
- TGI [29]: 20.6 µM
- TGI [30]: 18.1 µM
- TGI [31]: 25.2 µM
- TGI [32]: 26.4 µM
- TGI [33]: 27.9 µM
- TGI [34]: 26.3 µM
- TGI [35]: 29.4 µM
- TGI [36]: 23.1 µM
- TGI [37]: 29.6 µM
- TGI [38]: 27.5 µM
- TGI [39]: 29.2 µM
- TGI [40]: 26.5 µM
- TGI [41]: 22.3 µM
- TGI [42]: 27.4 µM
- TGI [43]: 31.3 µM
- TGI [44]: 33.8 µM
- TGI [45]: 23.8 µM
- TGI [46]: 27.7 µM
- TGI [47]: 28.2 µM
- TGI [48]: 16.5 µM
- TGI [49]: 22 µM

Structure (SMILES): CC1CCCCc2nc3c(c(=O)n21)CCCC3 (stereo not drawn)
- TGI [1]: > 100 µM
- TGI [2]: > 100 µM
- TGI [3]: > 100 µM
- TGI [50]: > 100 µM
- TGI [4]: > 100 µM
- TGI [5]: > 100 µM
- TGI [6]: > 100 µM
- TGI [7]: > 100 µM
- TGI [51]: > 100 µM
- TGI [8]: > 100 µM
- TGI [10]: > 100 µM
- TGI [52]: > 100 µM
- TGI [11]: > 100 µM
- TGI [12]: > 100 µM
- TGI [13]: > 100 µM
- TGI [14]: > 100 µM
- TGI [15]: > 100 µM
- TGI [16]: > 100 µM
- TGI [17]: > 100 µM
- TGI [53]: > 100 µM
- TGI [20]: > 100 µM
- TGI [22]: > 100 µM
- TGI [23]: > 100 µM
- TGI [54]: > 100 µM
- TGI [26]: > 100 µM
- TGI [27]: > 100 µM
- TGI [28]: > 100 µM
- TGI [29]: > 100 µM
- TGI [30]: > 100 µM
- TGI [31]: > 100 µM
- TGI [55]: > 100 µM
- TGI [32]: > 100 µM
- TGI [33]: > 100 µM
- TGI [34]: > 100 µM
- TGI [35]: > 100 µM
- TGI [36]: > 100 µM
- TGI [37]: > 100 µM
- TGI [38]: > 100 µM
- TGI [56]: > 100 µM
- TGI [40]: > 100 µM
- TGI [41]: > 100 µM
- TGI [42]: > 100 µM
- TGI [57]: > 100 µM
- TGI [43]: > 100 µM
- TGI [44]: > 100 µM
- TGI [46]: > 100 µM
- TGI [47]: > 100 µM
- TGI [48]: > 100 µM
- TGI [49]: > 100 µM
